The first test concerns the target T1, Glucokinase (GK) (Homo sapiens, UniProt P35557).
T1 construct: gene GCK; full-length human glucokinase (GenBank: BC001890.1), C-terminally hexa-histidine tagged
T1 sequence (P35557 1-465): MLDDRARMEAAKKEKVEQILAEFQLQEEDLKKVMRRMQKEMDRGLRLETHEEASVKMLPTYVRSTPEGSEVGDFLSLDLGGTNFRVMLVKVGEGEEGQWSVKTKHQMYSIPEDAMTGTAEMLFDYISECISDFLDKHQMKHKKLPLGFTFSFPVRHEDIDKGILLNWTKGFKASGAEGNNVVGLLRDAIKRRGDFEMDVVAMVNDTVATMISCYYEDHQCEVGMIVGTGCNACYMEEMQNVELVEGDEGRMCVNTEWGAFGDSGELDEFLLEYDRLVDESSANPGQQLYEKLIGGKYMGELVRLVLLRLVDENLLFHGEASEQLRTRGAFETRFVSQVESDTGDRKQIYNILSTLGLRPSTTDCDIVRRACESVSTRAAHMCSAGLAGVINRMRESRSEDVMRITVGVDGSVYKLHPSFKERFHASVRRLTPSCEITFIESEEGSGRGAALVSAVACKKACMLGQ
As to the kind of experiment: microscale thermophoresis with labelled recombinant GK; also coupled G6PDH enzyme activation assay (EC50 ca. […]). The test is classed as binding. The note with it: read-out: Dissociation constant with GK / Kd. Background: MST reads how a fluorescent partner responds to local heating, with and without ligand.
On to `O=c1c2cc(O)c(O)cc2oc2cc(O)c([C@@H]3O[C@H](CO)[C@@H](O)[C@H](O)[C@H]3O)c(O)c12` [compound 7, mangiferin], for which the Kd came out at 472 ± 20.5 µM.

The next test addresses T1, Glucokinase (GK). As to the kind of experiment: microscale thermophoresis with labelled recombinant GK. The test is classed as binding. The note with it: read-out: Dissociation constant with GK / Kd.
With `O=C(Nc1ncc(SCCN2CCCC2)s1)[C@]1(c2ccc(S(=O)(=O)C3CC3)cc2)C[C@H]1C1CCCCC1` [LY2608204], the Kd turned out to be 600 ± 36.1 µM.

The target of a further test is T1, Glucokinase (GK). As to the kind of experiment: biochemical.
Conditions: not given
Details: G6PDH-coupled spectrophotometric glucokinase activity, NADPH absorbance at 340 nm, 10 mM glucose, 37 °C. The protocol:
The in vitro efficacy of twelve compounds was assessed in two separate steps: a SC50 assay to evaluate the potency of each compound at a unified compound concentration of 50 μM. Then, we seek to obtain the values of EC50 and kinetic parameters Ka, Vmax of promising compounds, according to a reported method with minor modifications. Briefly, Twelve compounds unified in the same concentration of 50 μM were assayed in a 96-well plate with a final reaction volume of 100 μl. The reaction mixture consisted of 25 mM Hepes (pH 7.5), 10 mM glucose, 1 mM ATP, 4 U/ml G6PDH (Sigma-Aldrich Co. LLC., St. Louis, MO, USA), 1 mM NADP, 2.5 mM MgCl, 50 mM KCl, 2 mM DTT, […] recombinant human glucokinase and test compounds. The whole reaction mixtures were kept under 37 °C for 20 minutes. The increase in the rate of absorbance of NADPH generated in the reactions was monitored kinetically at 340 nm. The values were calculated by comparing with untreated GK. This term is called the efficacy of stimulatory concentration (SC50). Then, the EC50 of promising candidates were determined in the presence of various fixed concentrations of compound 7 (2–300 μM). Values were calculated by fitting enzymatic rates to the Hill equation by using GraphPad Prism 5.01. In order to further investigate the activation effect of the twelve compounds on GK enzymatic activity, the recombinant GK protein had been successfully obtained by genetic engineering method. Evaluation of the twelve hits on enzymatic activity was assessed spectrometrically by a coupled reaction with glucose-6-phosphate dehydrogenase. […] The activation percentage was the GK enzyme activity in each group compared to that of the blank control group. Each compound was assayed triply. The value presents in a column as the mean ± SD (n = 3). *P < 0.05, **P < 0.01, compared to the blank control group.
By EC50 is commonly meant the concentration that produces a half-maximal response. For `O=c1c2cc(O)c(O)cc2oc2cc(O)c([C@@H]3O[C@H](CO)[C@@H](O)[C@H](O)[C@H]3O)c(O)c12` [compound 7, mangiferin], the EC50 is 156 µM.

The test is the same for the next values; noted with them: untreated GK = 100%; read-out: % of control remaining.
As for `O=C(Nc1nc(-c2c[nH]c3ccccc23)cs1)c1cnccn1` [compound 1, 1], the remaining activity at 50 µM came out at 86.1 ± 5.68%.

Regarding `NC(=O)c1coc(-c2csc(NC(=O)c3ccc(Cl)cc3)n2)c1` [compound 2, 2], the remaining activity at 50 µM is 86.5 ± 5.71%.

As to `Cc1nc(S)sc1CC(=O)Nc1c[nH]ccc1=O` [compound 3, 3], the remaining activity at 50 µM is 46.7 ± 1.21%.

In the case of `Oc1ccc(Nc2ncnc3sccc23)cc1CN1CCOCC1` [compound 4, 4], the remaining activity at 50 µM was determined as 37.8 ± 12%.

As for `Cc1sc2ncnc(SCC(=O)Nc3c[nH]ccc3=O)c2c1C` [compound 5, 5], the remaining activity at 50 µM was 87.6 ± 5.67%.

`O=C(NCC(c1cccs1)c1c[nH]c2ccccc12)c1ccccn1` (centres unmarked) [compound 6, 6]: the remaining activity at 50 µM was found to be 90 ± 3.88%.

`O=c1c2cc(O)c(O)cc2oc2cc(O)c([C@@H]3O[C@H](CO)[C@@H](O)[C@H](O)[C@H]3O)c(O)c12` [compound 7, mangiferin]: the remaining activity at 50 µM was 126 ± 2.83%.

`CC(O)CNc1nc2ccccc2n1Cc1nc(N)nc(N(C)C)n1` (centres unmarked) [compound 8, 8]: the remaining activity at 50 µM amounted to 92 ± 0.96%.

On to `Cn1ccc(NC(=O)N(Cc2ccccc2)CC(O)c2ccco2)n1` (centres unmarked) [compound 9, 9], for which the remaining activity at 50 µM worked out at 82.4 ± 6.72%.

As for `O=C1NCC(c2ccc(Cl)cc2)Cc2[nH]c(-c3ncc[nH]3)nc21` (centres unmarked) [compound 10, 10], the remaining activity at 50 µM turned out to be 94.3 ± 1.49%.

Consider `COc1ccccc1C(=O)Nc1cccc(NC(=O)c2ncc[nH]2)c1` [compound 11, 11], for which the remaining activity at 50 µM was found to be 75.9 ± 6.72%.

(Values after article PMC5357792, “Identification of mangiferin as a potential Glucokinase activator by structure-based virtual ligand screening” (Scientific Reports, 2017).)
